PMC12523838, “Inhibition of Xanthine Oxidase by Four Phenolic Acids: Kinetic, Spectroscopic, Molecular Simulation, and Cellular Insights” (Foods, 2025)
Values joined by “and” are separate entries in the source; they are usually repeats but may differ in a detail not shown here. Equal entries are not always repeated. “Also recorded” adds a separate entry of the source. Where two headings read alike, the source gives them in different places.

Legend:
XOD (xanthine oxidase) [1] = molecular target: T1, XOD (xanthine oxidase) (Bos taurus, UniProt P80457); assay: Kinetic mechanisms of XOD inhibition (Lineweaver-Burk); assay type: biochemical, bovine; settings: for Inhibition types: Lineweaver-Burk plots; for Kis (inhibition constant for the XOD-substrate complex): mixed inhibition model; for Ki: read-out: Ki (inhibition constant for XOD)
T1 sequence (P80457 whole entry): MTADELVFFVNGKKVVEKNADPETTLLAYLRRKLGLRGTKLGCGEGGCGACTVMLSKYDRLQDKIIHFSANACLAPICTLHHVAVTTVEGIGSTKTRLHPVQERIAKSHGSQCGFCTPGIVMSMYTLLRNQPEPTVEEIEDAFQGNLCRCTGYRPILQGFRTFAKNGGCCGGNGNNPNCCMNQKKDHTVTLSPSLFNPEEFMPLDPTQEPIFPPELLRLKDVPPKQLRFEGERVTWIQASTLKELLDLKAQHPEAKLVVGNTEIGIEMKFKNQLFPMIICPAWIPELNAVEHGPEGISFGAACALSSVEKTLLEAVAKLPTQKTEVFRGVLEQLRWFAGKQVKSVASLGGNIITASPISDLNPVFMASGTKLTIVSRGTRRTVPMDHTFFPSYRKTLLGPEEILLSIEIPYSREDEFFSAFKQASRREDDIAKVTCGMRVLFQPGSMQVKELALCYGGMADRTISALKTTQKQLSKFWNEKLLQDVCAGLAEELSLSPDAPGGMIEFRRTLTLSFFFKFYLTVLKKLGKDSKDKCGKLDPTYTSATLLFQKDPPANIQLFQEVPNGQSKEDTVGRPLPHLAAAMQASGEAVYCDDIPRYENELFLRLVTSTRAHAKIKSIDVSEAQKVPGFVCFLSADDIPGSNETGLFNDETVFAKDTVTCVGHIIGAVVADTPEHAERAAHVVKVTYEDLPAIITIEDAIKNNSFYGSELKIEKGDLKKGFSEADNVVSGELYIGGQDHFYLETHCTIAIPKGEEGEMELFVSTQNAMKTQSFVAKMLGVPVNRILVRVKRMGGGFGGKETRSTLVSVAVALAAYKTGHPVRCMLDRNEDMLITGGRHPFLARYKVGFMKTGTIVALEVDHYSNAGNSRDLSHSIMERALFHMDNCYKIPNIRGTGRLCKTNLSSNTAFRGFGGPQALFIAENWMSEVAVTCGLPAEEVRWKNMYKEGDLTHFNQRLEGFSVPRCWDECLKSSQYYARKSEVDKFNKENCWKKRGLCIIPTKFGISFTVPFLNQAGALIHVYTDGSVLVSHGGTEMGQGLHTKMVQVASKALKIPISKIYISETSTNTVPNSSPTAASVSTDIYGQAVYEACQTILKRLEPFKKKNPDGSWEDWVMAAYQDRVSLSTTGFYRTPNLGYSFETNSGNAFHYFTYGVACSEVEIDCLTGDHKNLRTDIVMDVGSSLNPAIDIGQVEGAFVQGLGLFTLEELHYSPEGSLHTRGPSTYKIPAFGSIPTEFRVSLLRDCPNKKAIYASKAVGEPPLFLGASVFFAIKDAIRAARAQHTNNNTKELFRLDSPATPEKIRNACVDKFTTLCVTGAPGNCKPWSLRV
Method: The inhibition kinetics of XOD by FA, CA, GA, and PA were evaluated using Lineweaver–Burk plots. The inhibitor concentrations were as follows: FA (0, 2.0, 3.0, and 4.0 mM), CA (0, 1.0, 2.0, and 4.0 mM), GA (0.2, 1.0, 2.0, and 4.0 mM), and PA (1.0, 2.0, 5.0, and 10.0 mM). The substrate (xanthine) concentrations were fixed at 0.1, 0.2, 0.3, and 0.4 mM. XOD (0.05 U/mL) was used, and the initial reaction velocity (v) was calculated based on UA formation.
Lineweaver–Burk plots were established by plotting 1/v against 1/[s] for each inhibitor concentration. Four linear regressions were obtained for each inhibitor, enabling the determination of the inhibition type. […] The slope and intercept of the Lineweaver–Burk plot were plotted against inhibitor concentration [I], yielding the following equations: (3) and (4).
V denotes the reaction rate, Vmax the maximum rate, Km the Michaelis constant, Ki the inhibition constant for XOD, and Kis the inhibition constant for the XOD–substrate complex. Decreased Ki or Kis values indicate stronger inhibitory activity.

XOD [2] = molecular target: T2, XOD (Bos taurus, UniProt P80457); assay: Fluorescence quenching of XOD (Stern-Volmer); assay type: binding, bovine; settings: for Kq (quenching rate constant) / n (number of binding sites): 298 K
T2 construct: XOD (7.2 units/mL, derived from bovine milk); purchased Sigma-Aldrich (St. Louis, MO, USA); host or cells: bovine milk
T2 sequence (P80457 whole entry): as above
Method: In brief, 100 µL of XOD (0.05 U/mL in 200 mM PBS, pH 7.5) was combined with 100 µL of each phenolic acid at final concentrations of 0, 50, 100, 200, 300, 400, and 500 μM. The mixtures were incubated at 25 °C for 10 min, and fluorescence emission spectra were recorded using a microplate reader (Thermo Fisher Scientific, Waltham, MA, USA) with an excitation wavelength of 280 nm and an emission collected from 310 to 500 nm. PBS was used as the blank, and background fluorescence was subtracted to ensure accuracy.
The binding mechanisms of FA, CA, GA, and PA to XOD were investigated using the fluorescence quenching method at seven different concentrations.
F0 and F denote the fluorescence intensities of XOD in the absence and presence of quenchers (FA, CA, GA, and PA), respectively. The quenching constant (Ksv) is, obtained from the linear fitting of F0/F against the quencher concentration [Q]. The quenching rate constant is expressed as Kq, while τ0 represents the average lifetime of the fluorophore in the absence of a quencher (typically 10^−9 s). The effective quenching constant of the accessible fluorophore is designated as Ka, and fa corresponds to the fraction of fluorescence accessible to quenching. The binding constant is indicated by K, and n stands for the number of binding sites.

[3] = ABTS radical scavenging activity
Method: The modified ABTS assay was carried out as described by Foss et al. with appropriate modifications. A 7 mM ABTS solution was mixed in equal volumes with 2.45 mM potassium persulfate and kept in the dark at room temperature for 12–16 h to generate the ABTS•^+ stock solution. […] Absorbance was recorded at 734 nm. PBS served as the blank, while Trolox was used as the standard. The results were reported as IC50 value, representing the concentration of sample required to scavenge 50% of ABTS•^+ radicals.

[4] = DPPH radical scavenging activity
Method: The DPPH• scavenging capacity was evaluated following the method of Nakbi et al.. […] The mixture was vortexed and incubated at room temperature for 30 min. Absorbance was then measured at 517 nm and recorded as Ai. For the control experiment, 10 μL of anhydrous ethanol replaced the sample soluition, while all other steps were identical, and the absorbance was recorded as Ac. To correct for background, 10 μL of sample solution was mixed with 240 μL of anhydrous ethanol alone, and the absorbance at 517 nm was recorded as A0.

[5] = Reducing power (potassium ferricyanide, absorbance at 700 nm); settings: concentration at which absorbance at 700 nm reached 0.5
Method: The mixture was incubated at 50 °C for 20 min, after which 0.5 mL of 10% (,w/v) trichloroacetic acid solution was added. Following centrifugation at 3000 rpm for 10 min, 0.5 mL of the supernatant was transferred to a new test tube, and 0.5 mL of distilled water along with 0.1 mL of 0.1% (,w/v) ferric chloride solution were added. After 10 min of incubation, absorbance was measured at 700 nm. Higher absorbance values correspond to stronger reducing activity. The IC50 value was defined as the concentration at which the absorbance reached 0.5.

XOD [6] = molecular target: T2, XOD; assay: CD spectroscopy, secondary structure of XOD; design: species or system bovine; settings: for α-helix content of XOD: XOD with phenolic acid (300 μM solution, equal volumes), XOD alone 36.70; for β-sheet content of XOD: XOD with phenolic acid, XOD alone 13.87
Method: CD spectroscopy was employed to determine the conformational structure of XOD in the presence of phenolic compounds. Spectra were recorded in the wavelength range of 190–250 nm using a scanning rate of 100 nm/min, with continuous nitrogen purging at room temperature. XOD was prepared at 2.0 mg/mL in PBS (200 mM, pH 7.5) and then diluted 6-fold to 0.33 mg/mL. Phenolic compounds were dissolved in PBS at 300 μM, and equal volumes of XOD and phenolic solutions were joined in equal amounts. CD spectra of the mixtures were recorded with the PBS as the background, and secondary structure content of XOD was analyzed employing the SELCON3 algorithm on the DichroWeb server (http://dichroweb.cryst.bbk.ac.uk/html/home.shtml).
The CONTIN program was used to determine the secondary structure composition of XOD (Figure 3B).

XOD (xanthine oxidase) [7] = molecular target: T1, XOD (xanthine oxidase); assay: XOD inhibitory activity in vitro (enzymatic reaction, HPLC of UA); assay type: biochemical, bovine
Method: The XOD inhibitory activity of the samples was assessed using an enzymatic reaction followed by HPLC analysis. Briefly, 50 μL of XOD (0.05 U/mL in 200 mM PBS, pH 7.5) was combined with either 50 μL of PBS (control) or 50 μL of the sample solution. The reaction mixture was equilibrated at 37 °C for 5 min, after which 150 μL of 0.40 mM xanthine was added. The reaction proceeded at 37 °C for 10 min and was terminated by adding 80 μL of 1.0 M HCl.
UA production was measured using an HPLC system (Agilent Technologies, Santa Clara, CA, USA) equipped with a UV detector. The reaction solution was diluted 20-fold and filtered, and 10 μL of the filtrate was injected into an Agilent Eclipse XDB-C18 column (150 × 4.6 mm, 5 μm). The mobile phase, consisting of 10% methanol and 90% 10 mM sodium phosphate buffer (pH 5.5), was delivered isocratically at 1.0 mL/min. UA was detected at 292 nm with the column maintained at 25 °C. Concentrations were calculated based on an external calibration curve. XOD inhibition was expressed as the percentage reduction of UA formation, and the IC50 value was defined as the sample concentration at which 50% inhibition was achieved.

[8] = Oxygen radical absorption capacity (ORAC)
Method: The ORAC analysis method was adapted from Wang et al.with adjustments. The trial was conducted in 75 mM PBS (pH 7.4). […] AAPH was freshly dissolved in PBS at 38.25 mM and maintained in an ice-water bath. […] The reaction was initiated by adding 100 μL of AAPH solution, and fluorescence intensity was recorded every minute for 100 min to generate a fluorescence decay curve (Thermo Fisher Scientific, Waltham, MA, USA). Trolox served as the reference standard, while PBS functioned as the blank. ORAC values were determined from the net area under the fluorescence decay curve and expressed as Trolox equivalents per sample [22].

BRL-3a cells = assay: UA levels in xanthine-treated BRL-3A cells; assay type: cell-based; settings: vs model group
Method: UA levels were measured following the method of Liu et al.. […] After 48 h of incubation, supernatants were collected, spun at 1000× g for 5 min, then the UA level was quantified with the UA assay kit.

[9] = XOD 0.05 U/mL, 0.40 mM xanthine, 37 °C, pH 7.5, read-out: IC50 of XOD inhibitory activity

Row | SMILES | Inhibition types (XOD (xanthine oxidase) [1]) | Vmax (XOD (xanthine oxidase) [1]; inhibitor 1.0 mM) [mM/min] | Vmax (XOD (xanthine oxidase) [1]; inhibitor 2.0 mM) [mM/min] | Vmax (XOD (xanthine oxidase) [1]; inhibitor 4.0 mM) [mM/min] | Kis (inhibition constant for the XOD-substrate complex) (XOD (xanthine oxidase) [1]) [mM] | Kd (XOD [2]) [µM] | Kq (quenching rate constant) (XOD [2]) | n (number of binding sites) (XOD [2]) | IC50 [3] [µM] | IC50 [4] [µM] | Reducing Power [5] | α-helix content of XOD (XOD [6]) [%] | β-sheet content of XOD (XOD [6]) [%] | ORAC Value ([8]; Trolox equivalents) | Ki (XOD (xanthine oxidase) [1]) [mM] | IC50 (XOD (xanthine oxidase) [7]; [9]) [mM] | other results
1 | O=C(O)c1cc(O)c(O)c(O)c1 [Gallic acid, gallic acid] | Mixed inhibition | 4.83 | 4.72 | 3.61 | 3.05 | 139 | 0.26 ± 0.01 1012 L*mol-1*s-1 | 1.13 ± 0.00 | 20 | 180 ± 10 | 0.20 ± 0.01 mM·days | 37.33 | 13.30 | 20.12 ± 0.74 a mmol TE/mmol |  |  | Inhibition types (XOD (xanthine oxidase) [1]; listed as GA): mixed but predominantly non-competitive inhibition; Vmax (XOD (xanthine oxidase) [1]; inhibitor 0.2 mM): 4.90 mM/min; Reducing Power ([5]; listed as GA): 0.20 ± 0.01 mM; IC50 (XOD (xanthine oxidase) [7]): 0.87 ± 0.03 mM; inhibitory efficacy of GA relative to PA (XOD IC50) (XOD (xanthine oxidase) [7]; GA vs PA): approximately 14.62 fold; ORAC Value [8]: 20.12 ± 0.74 mM; UA levels (BRL-3a cells; 25 μM, 1 mM xanthine, 48 h, listed as GA): significantly reduced UA levels
2 | Cc1c(C)c2c(c(C)c1O)CCC(C)(C(=O)O)O2 (stereo not drawn) [Trolox, 6-Hydroxy-2,5,7,8-tetramethylchromane-2-carboxylic acid, reference compound] |  |  |  |  |  |  |  |  | 3410 ± 120 | 680 ± 10 | 2.62 ± 0.20 mM and 2.62 ± 0.20 b (Trolox) mM |  |  |  |  |  | 
3 | O=C(O)/C=C/c1ccc(O)cc1 [p-Coumaric acid, p-coumaric acid] | Mixed inhibition | 0.79 | 0.74 | 0.68 | 6.04 | 99.9 ± 4.49 | 0.91 ± 0.01 1012 L*mol-1*s-1 | 1.01 ± 0.00 | 230 ± 10 | 19400 ± 1240 | 6.98 ± 0.13 a mM | 36.20 | 14.70 | 9.64 ± 0.27 b mmol TE/mmol | 1.42 | 7.61 ± 0.3 | Inhibition types (XOD (xanthine oxidase) [1]; listed as CA): mixed inhibition with competitive dominance; UA levels (BRL-3a cells; 25–100 μM, 1 mM xanthine, 48 h, p < 0.05, listed as CA): significantly reduced uric acid (UA) concentration; also recorded: significantly reduced UA levels
4 | Oc1ncnc2[nH]ncc12 [allopurinol, reference compound] |  |  |  |  |  |  |  |  |  |  |  |  |  |  |  |  | UA levels (BRL-3a cells; positive control, p < 0.05): significantly lower UA levels
5 | COc1cc(/C=C/C(=O)O)ccc1O [Ferulic acid, ferulic acid] | Mixed inhibition |  | 1.39 | 0.95 | 1.78 | 7140 | 0.16 ± 0.01 1012 L*mol-1*s-1 | 0.70 ± 0.01 | 300 | 800 ± 30 | 0.74 ± 0.05 c mM | 36.37 | 14.07 | 7.99 ± 0.24 c mmol TE/mmol | 0.89 | 2.04 ± 0.11 | Inhibition types (XOD (xanthine oxidase) [1]; listed as FA): mixed inhibition with competitive dominance; Vmax (XOD (xanthine oxidase) [1]; inhibitor 3.0 mM): 1.04 mM/min; UA levels (BRL-3a cells; 25–100 μM, 1 mM xanthine, 48 h, p < 0.05, listed as FA): significantly reduced uric acid (UA) concentration; also recorded: significantly reduced UA levels
6 | O=C(O)c1ccc(O)c(O)c1 [Protocatechuic acid, protocatechuic acid] | Mixed inhibition | 0.79 | 0.72 |  | 17.76 | 719 | 0.18 ± 0.01 1012 L*mol-1*s-1 | 0.98 ± 0.02 | 400 ± 20 | 620 | 0.12 ± 0.01 mM·days | 35.77 | 14.47 | 6.63 ± 0.09 d mmol TE/mmol | 3.21 | 12.7 ± 0.67 | Inhibition types (XOD (xanthine oxidase) [1]; listed as PA): mixed inhibition with competitive dominance; Vmax (XOD (xanthine oxidase) [1]; inhibitor 5.0 mM): 0.69 mM/min; Vmax (XOD (xanthine oxidase) [1]; inhibitor 10.0 mM): 0.68 mM/min; Reducing Power ([5]; listed as PA): 0.12 ± 0.01 mM; UA levels (BRL-3a cells; 25–100 μM, 1 mM xanthine, 48 h, p < 0.05, listed as PA): significantly reduced uric acid (UA) concentration; also recorded: significantly reduced UA levels
